Patent publication US10597388B2, “Pyridazinone herbicides” (FMC CORPORATION, priority 2014, dated 2020)

Legend:
Assay in all cases: Test C greenhouse herbicide test, pre- and postemergence
Format in all cases: in vivo
[1] = system: oilseed rape (Brassica napus)
Method in brief: (§1)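 Seeds sown in loam–sand blend treated preemergence; plants in peat-based medium sprayed postemergence at 2–18 cm (1- to 4-leaf stage); chemicals in non-phytotoxic solvent with surfactant. Greenhouse 13–15 d, then visual rating versus controls on 0–100 scale (0 no effect, 100 complete control).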

[2] = system: morningglory (Ipomoea coccinea)
Method in brief: as §1

[3] = system: foxtail, giant (giant foxtail, Setaria faberii)
Method in brief: as §1

[4] = system: waterhemp (common waterhemp, Amaranthus rudis)
Method in brief: as §1

[5] = system: ryegrass, Italian (Italian ryegrass, Lolium multiflorum)
Method in brief: as §1

[6] = system: wheat (winter wheat, Triticum aestivum)
Method in brief: as §1

[7] = system: barnyardgrass (Echinochloa crus-galli)
Method in brief: as §1

[8] = system: galium (catchweed bedstraw, Galium aparine)
Method in brief: as §1

[9] = system: blackgrass (Alopecurus myosuroides)
Method in brief: as §1

[10] = system: velvetleaf (Abutilon theophrasti)
Method in brief: as §1

[11] = system: ragweed (common ragweed, Ambrosia elatior)
Method in brief: as §1

corn (Zea mays) = system: corn (Zea mays)
Method in brief: as §1

[12] = system: lambsquarters (Chenopodium album)
Method in brief: as §1

[13] = system: crabgrass, large (large crabgrass, Digitaria sanguinalis)
Method in brief: as §1

[14] = system: pigweed (Amaranthus retroflexus)
Method in brief: as §1

[15] = Postemergence, 31 g ai/ha, 0 to 100 scale (0 no effect, 100 complete control)
[16] = Postemergence, 125 g ai/ha, scale 0 to 100, 0 is no effect, 100 is complete control
[17] = Postemergence, 250 g ai/ha, scale 0 to 100, 0 no effect, 100 complete control, 13 to 15 d
[18] = Preemergence, 31 g ai/ha, scale 0 to 100, 0 is no effect, 100 is complete control
[19] = Preemergence, 62 g ai/ha, scale 0 to 100, 0 is no effect, 100 is complete control
[20] = Preemergence, 125 g ai/ha, scale 0 to 100, 0 is no effect, 100 is complete control
[21] = Preemergence, 250 g ai/ha, scale 0 to 100, 0 no effect, 100 complete control
[22] = postemergence, 62 g ai/ha, scale 0 to 100, 0 no effect, 100 complete control

SMILES: Cc1nn(C)c(=O)c(-c2cccc3ccccc23)c1O [Compound 11, 5-hydroxy-2,6-dimethyl-4-(1-naphthalenyl)-3(2H)-pyridazinone]
- Oilseed Rape plant response rating [1, 15]: 0
- Plant response rating, Oilseed Rape [1, 16]: 0
- Plant response rating, Oilseed Rape [1, 17]: 0
- Plant response rating, Oilseed Rape [1, 18]: 0
- Plant response rating, Oilseed Rape [1, 19]: 0
- Plant response rating, Oilseed Rape [1, 20]: 0
- Oilseed Rape plant response rating [1, 21]: 0
- Oilseed Rape plant response rating [1, 22]: 0
- Morningglory plant response rating [2, 15]: 70
- Plant response rating, Morningglory [2, 16]: 90
- Plant response rating, Morningglory [2, 17]: 98
- Plant response rating, Morningglory [2, 18]: 100
- Plant response rating, Morningglory [2, 19]: 100
- Plant response rating, Morningglory [2, 20]: 100
- Morningglory plant response rating [2, 21]: 100
- Morningglory plant response rating [2, 22]: 80
- Foxtail, Giant plant response rating [3, 15]: 5
- Plant response rating, Foxtail, Giant [3, 16]: 10
- Plant response rating, Foxtail, Giant [3, 17]: 30
- Plant response rating, Foxtail, Giant [3, 18]: 0
- Plant response rating, Foxtail, Giant [3, 19]: 35
- Plant response rating, Foxtail, Giant [3, 20]: 50
- Foxtail, Giant plant response rating [3, 21]: 90
- Foxtail, Giant plant response rating [3, 22]: 5
- Waterhemp plant response rating [4, 15]: 80
- Plant response rating, Waterhemp [4, 16]: 95
- Plant response rating, Waterhemp [4, 17]: 95
- Plant response rating, Waterhemp [4, 19]: 100
- Plant response rating, Waterhemp [4, 20]: 100
- Waterhemp plant response rating [4, 21]: 100
- Waterhemp plant response rating [4, 22]: 80
- Ryegrass, Italian plant response rating [5, 15]: 70
- Plant response rating, Ryegrass, Italian [5, 16]: 90
- Plant response rating, Ryegrass, Italian [5, 17]: 90
- Plant response rating, Ryegrass, Italian [5, 18]: 90
- Plant response rating, Ryegrass, Italian [5, 19]: 95
- Plant response rating, Ryegrass, Italian [5, 20]: 100
- Ryegrass, Italian plant response rating [5, 21]: 100
- Ryegrass, Italian plant response rating [5, 22]: 70
- Wheat plant response rating [6, 15]: 0
- Plant response rating, Wheat [6, 16]: 5
- Plant response rating, Wheat [6, 17]: 5
- Plant response rating, Wheat [6, 19]: 0
- Plant response rating, Wheat [6, 20]: 0
- Wheat plant response rating [6, 21]: 10
- Wheat plant response rating [6, 22]: 0
- Barnyardgrass plant response rating [7, 15]: 0
- Plant response rating, Barnyardgrass [7, 16]: 5
- Plant response rating, Barnyardgrass [7, 17]: 15
- Plant response rating, Barnyardgrass [7, 18]: 0
- Plant response rating, Barnyardgrass [7, 19]: 0
- Plant response rating, Barnyardgrass [7, 20]: 10
- Barnyardgrass plant response rating [7, 21]: 80
- Barnyardgrass plant response rating [7, 22]: 0
- Galium plant response rating [8, 15]: 75
- Plant response rating, Galium [8, 16]: 90
- Plant response rating, Galium [8, 17]: 90
- Plant response rating, Galium [8, 18]: 85
- Plant response rating, Galium [8, 19]: 90
- Plant response rating, Galium [8, 20]: 90
- Galium plant response rating [8, 21]: 95
- Galium plant response rating [8, 22]: 90
- Blackgrass plant response rating [9, 15]: 5
- Plant response rating, Blackgrass [9, 16]: 30
- Plant response rating, Blackgrass [9, 17]: 75
- Plant response rating, Blackgrass [9, 18]: 35
- Plant response rating, Blackgrass [9, 19]: 40
- Plant response rating, Blackgrass [9, 20]: 50
- Blackgrass plant response rating [9, 21]: 85
- Blackgrass plant response rating [9, 22]: 15
- Velvetleaf plant response rating [10, 15]: 0
- Plant response rating, Velvetleaf [10, 16]: 45
- Plant response rating, Velvetleaf [10, 17]: 80
- Plant response rating, Velvetleaf [10, 19]: 10
- Plant response rating, Velvetleaf [10, 20]: 90
- Velvetleaf plant response rating [10, 21]: 90
- Velvetleaf plant response rating [10, 22]: 5
- Ragweed plant response rating [11, 15]: 0
- Plant response rating, Ragweed [11, 16]: 95
- Plant response rating, Ragweed [11, 17]: 95
- Plant response rating, Ragweed [11, 18]: 15
- Plant response rating, Ragweed [11, 19]: 50
- Plant response rating, Ragweed [11, 20]: 80
- Ragweed plant response rating [11, 21]: 90
- Ragweed plant response rating [11, 22]: 40
- Corn plant response rating (corn (Zea mays); [15]): 0
- Plant response rating, Corn (corn (Zea mays); [16]): 0
- Plant response rating, Corn (corn (Zea mays); [17]): 0
- Plant response rating, Corn (corn (Zea mays); [18]): 0
- Plant response rating, Corn (corn (Zea mays); [19]): 0
- Plant response rating, Corn (corn (Zea mays); [20]): 0
- Corn plant response rating (corn (Zea mays); [21]): 0
- Corn plant response rating (corn (Zea mays); [22]): 0
- Lambsquarters plant response rating [12, 15]: 80
- Plant response rating, Lambsquarters [12, 16]: 90
- Plant response rating, Lambsquarters [12, 17]: 90
- Plant response rating, Lambsquarters [12, 18]: 70
- Plant response rating, Lambsquarters [12, 19]: 100
- Plant response rating, Lambsquarters [12, 20]: 100
- Lambsquarters plant response rating [12, 21]: 100
- Lambsquarters plant response rating [12, 22]: 90
- Crabgrass, Large plant response rating [13, 15]: 0
- Plant response rating, Crabgrass, Large [13, 16]: 0
- Plant response rating, Crabgrass, Large [13, 17]: 10
- Plant response rating, Crabgrass, Large [13, 18]: 0
- Plant response rating, Crabgrass, Large [13, 19]: 0
- Plant response rating, Crabgrass, Large [13, 20]: 40
- Crabgrass, Large plant response rating [13, 21]: 40
- Crabgrass, Large plant response rating [13, 22]: 0
- Pigweed plant response rating [14, 15]: 50
- Plant response rating, Pigweed [14, 16]: 90
- Plant response rating, Pigweed [14, 17]: 95
- Plant response rating, Pigweed [14, 18]: 0
- Plant response rating, Pigweed [14, 19]: 100
- Plant response rating, Pigweed [14, 20]: 100
- Pigweed plant response rating [14, 21]: 100
- Pigweed plant response rating [14, 22]: 90
